Experimental data taken from publication PMC4032254, “Targeting of the MYCN Protein with Small Molecule c-MYC Inhibitors” (PLoS ONE, 2014).
pIC50, pKd: −log10 of the molar value.

What was measured:
[1] = target: T1, bHLHZip domain of human c-MYC (353–437) (Homo sapiens, UniProt P01106); assay: Surface plasmon resonance binding to bHLHZip of c-MYC; details: SPR, 25°C, steady state, mean ± SD
T1 construct: N-terminally His-tagged bHLHZip c-MYC (353–437) and bHLHZip MYCN (380–464) proteins were over-expressed in E. coli BL21 (DE3); made in house; host or cells: E. coli BL21 (DE3)
Procedure: (§1) For all SPR binding measurements the compounds were injected at increasing concentrations.
(§2) In order to determine the affinity of the compounds to c-MYC and MYCN, the response for each small molecule was plotted against the analyte (compound) concentration. The KD was defined as the concentration of analyte at 50% of the experimental maximal Response (Rmax). Approximate KD-values could be determined for all compounds except for #764. […] In summary, all active c-MYC inhibitors tested were also found to bind directly to MYCN.
N-terminally His-tagged bHLHZip c-MYC (353–437) and bHLHZip MYCN (380–464) proteins were over-expressed in E. coli BL21 (DE3) bacteria (Stratagene) at 37°C in LB media with kanamycin. Cultures were induced with Isopropyl β-D-1-thiogalactopyranoside (0,1 mg/ml) at an OD of 0.6 and harvested after 4 hours. […] Protein concentrations were determined by SDS-page comparing purified proteins to a standard curve of BSA loaded on the gel.
(§3) Surface Plasmon Resonance (SPR) experiments were performed using a Biacore T200 (GE Healthcare) instrument at 25°C. […] The obtained data was analyzed by the Biacore T200 Evaluation Software 2.0 (GE Healthcare). […]

[2] = target: T2, bHLHZip domain of human MYCN (380–464) (Homo sapiens, UniProt P04198); assay: Surface plasmon resonance binding to bHLHZip of MYCN; details: SPR, 25°C, steady state, mean ± SD
T2 construct: N-terminally His-tagged bHLHZip c-MYC (353–437) and bHLHZip MYCN (380–464) proteins were over-expressed in E. coli BL21 (DE3); made in house; host or cells: E. coli BL21 (DE3)
Procedure: as §1, §2
N-terminally His-tagged bHLHZip c-MYC (353–437) and bHLHZip MYCN (380–464) proteins were over-expressed in E. coli BL21 (DE3) bacteria (Stratagene) at 37°C in LB media with kanamycin. Cultures were induced with Isopropyl β-D-1-thiogalactopyranoside (0,1 mg/ml) at an OD of 0.6 and harvested after 4 hours. After sonication of the proteins in 50 mM NaH2PO4, 100 mM NaCl and 10 mM Tris-HCl (pH = 8,0) for 6×30 seconds, the pellet was resuspended in 100 mM NaH2PO4, 10 mM Tris-HCl, 10 mM imidazole and 8 M urea (pH = 8,0) prior to additional sonication for 6×30 seconds. The proteins were then loaded onto a Ni-Sepahrose High Performance His-Trap column (GE Healthcare), washed with ten column volumes of 100 mM NaH2PO4, 10 mM Tris-HCl, 40 mM imidazole and 8 M urea (pH = 8,0) and finally eluted with two column volumes 100 mM NaH2PO4, 10 mM Tris-HCl, 500 mM imidazole and 8 M urea (pH = 8,0). Fractions without visible higher molecular mass contaminations, as judged by SDS-page, were pooled and refolded by dialysis in 50 mM NaH2PO4, 100 mM NaCl, 10 mM Tris-HCl (pH = 8,0), 5 mM EDTA, 2 mM DTT and decreasing concentrations of urea (6 M, 4 M, 2 M and 0 M). […] Protein concentrations were determined by SDS-page comparing purified proteins to a standard curve of BSA loaded on the gel.
as §3

MYCN/MAX interaction = target: T3, MYCN/MAX interaction (Homo sapiens, UniProt P04198); assay: Proximity ligation assay (PLA) for MYCN/MAX interaction in SMS-KCN69n cells; assay type: cell-based; details: for effect on MYCN/MAX interaction (PLA): 6 hours treatment, compared to DMSO
T3 construct: endogenous in cells; host or cells: SMS-KCN69n (human MYCN-amplified neuroblastoma)
T3 sequence (P04198 1-464): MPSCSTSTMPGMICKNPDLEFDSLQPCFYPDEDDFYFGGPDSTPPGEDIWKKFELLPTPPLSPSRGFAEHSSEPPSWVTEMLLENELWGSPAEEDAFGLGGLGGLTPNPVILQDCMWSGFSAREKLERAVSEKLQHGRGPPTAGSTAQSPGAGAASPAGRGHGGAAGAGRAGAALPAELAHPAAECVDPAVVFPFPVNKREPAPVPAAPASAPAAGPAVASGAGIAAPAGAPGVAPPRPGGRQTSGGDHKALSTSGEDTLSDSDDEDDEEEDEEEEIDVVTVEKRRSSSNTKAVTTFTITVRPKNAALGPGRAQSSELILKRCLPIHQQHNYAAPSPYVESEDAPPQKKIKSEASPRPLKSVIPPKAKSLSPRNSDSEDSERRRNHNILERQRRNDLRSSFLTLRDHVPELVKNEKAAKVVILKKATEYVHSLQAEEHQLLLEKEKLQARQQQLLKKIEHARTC
From the text: To investigate if the other small molecules also have an effect on MYCN/MAX dimerization we performed a proximity ligation assay (PLA) using MYCN-amplified SMS-KCN69n NB cells. […] No signal was detected in any of the experimental negative controls (Figure S4).
Figure 3 Reduction of MYCN/MAX interaction in NB cells after treatment with small molecules. A) Proximity ligation assay (PLA) for MYCN/MAX interaction after treatment of SMS-KCN69n cells with the different small molecules at the indicated concentrations for 6 hours. […] DNA is stained with DAPI. Scale bar: […]. The pictures are representative from three independent experiments. B) Quantification of the PLA signals per cell after treatment with the different compounds. Error bars indicate standard error of the mean.
40×10^3 SMS-KCN69n cells were seeded on collagen coated coverslips and grown for 24 hours and treated for 6 hours the next day. After 6 hours the cells were washed in PBS and treated as previously described. The PLA assay was performed after manufacturer's instructions with the Duolink kit (Olink, Uppsala, Sweden). The cells were incubated with primary antibody against MYCN (NCMII100, St Cruz Bio) 1∶500 and Max (C-17, St Cruz Bio) 1∶500 for 1 hour in a humidity chamber at 37°C, which were diluted in antibody diluent provided by the manufacturer. MYCN (1∶500) and FAS (A-20, St Cruz Bio) 1∶500 as well as MAX (1∶500) and GFP (C-2, St Cruz Bio) 1∶500 antibodies were used in combination in order to test for any unspecific binding of the secondary antibodies or unspecific signals. […]
The confocal images of the cells were acquired at 63× magnification using a motorized axiovert fluorescence microscope 200 M LCI (Zeiss GmBH, Göttingen, Germany) including a CSU10 Yokogawa head; a multilens/multipinhole array aperture (Yokogawa, Japan), an ORCA ER cold CCD camera; detector array 1344×1024px (Hammamatsu, Japan) and two continuous wave diode-pumped solid-state (DPSS) lasers for fluorescence excitation (Cobolt, Sweden); Cobolt Calypso 491 nm DPSS (excitation of green PLA fluorophore) and Cobolt Jive 561 nm DPSS (excitation of Alexa Fluor 568). […] A total amount of at least 120 cells were analyzed for all compounds. The PLA signals were analyzed using the open source image analysis program Image J (NIH, Bethseda, USA) and the amount of PLA signal per cell was calculated. Two persons analyzed the images independently in a blind fashion.
In order to quantify the PLA signal from the total z-depth of each cell confocal z-stacks was projected in z and identically processed regarding background subtraction. The PLA signal was then quantified blindly and automatically using a find maxima-based algorithm in ImageJ (plugin routine developed by Dr. E. Flaberg and Professor L. Szekely, KI and available upon request). […]

MYCN protein levels = assay: Western blot of MYCN protein levels in SK-N-BE(2) cells; assay type: cell-based, human; details: 48 hours
Procedure: In order to determine the effect of the other compounds analyzed in this study on the MYCN protein levels, SK-N-BE(2) NB cells were treated with as a high concentration of each compound as possible without resulting in excessive cell death. […] Membranes were probed with antibodies recognizing MYCN and GAPDH. The blots are representative from three independent experiments. Whole cell extracts were prepared and lysed using RIPA-buffer. Western blot analysis was performed as previously described. In brief, membranes were probed with a mouse anti-MYCN antibody (B8.4.B, St Cruz Bio), MAX antibody (C-2, St Cruz Bio) and an HRP-conjugated anti-mouse antibody (DAKO) was used as secondary antibody. The membranes were developed using enhanced chemiluminescence substrate (ECL, Amersham).

Kelly cells [3] = assay: Crystal violet growth inhibition assay in Kelly cells; assay type: cell-based, human; details: 48 h treatment
From the text: Error bars indicate standard deviation. […] Error bars indicate standard deviation.

Tet21N cells = assay: Apoptosis in Tet21N cells with doxycycline regulated MYCN expression; assay type: cell-based, human; details: 48 hour treatment
From the text: GAPDH was used as loading control. […] Error bars indicate standard error. (TIF) Click here for additional data file.

[4] = test system: xenograft models of prostate cancer; details: cited from earlier work
TH-MYCN transgenic mice = test system: TH-MYCN transgenic mice; parameters: method as in PMID 23733953; details: cited from earlier work
NB xenografts = test system: NB xenografts; parameters: method as in PMID 23733953; details: cited from earlier work
SK-N-BE(2) cells [5] = assay: Apoptosis, propidium iodide sub G1 DNA content, SK-N-BE(2); assay type: cell-based, human
Procedure: (§4) Figure 5 Growth inhibition and apoptosis induction in MYCN amplified cells. (A) The amount of viable of cells was determined using crystal violet assay following 48 hours treatment of Kelly cells with increasing concentration of the indicated compound. Data are shown as percent of control (DMSO) treated cells and represent the mean of three independent experiments. Error bars indicate standard deviation. (B) Pearson's correlation between the IC50 values in the growth inhibition assay (A, Table 2) and the KD values for binding to MYCN (Table 1). (C–D) Quantification of apoptosis by propidium iodide staining for sub G1 DNA content of SK-N-BE(2) (C) and Kelly (D) cells. Data represent the means of at least three independent experiments. Error bars indicate standard deviation. We next investigated the level of apoptosis induction in response to treatment with the molecules using two different MNA NB cell lines (Figure 5C, D). […] To verify the MYCN specificity in apoptosis induction, we next used Tet21N NB cells with doxycycline regulated MYCN expression. […] Small molecule-induced apoptosis was scored by quantifying the sub-G0/G1 fraction of the cell cycle. […] Cells were stained with propidium iodide solution (5 µg/ml propidium iodide and 25 µg/ml RNase A in PBS) for 30 min at 37°C and analyzed in a FACScan flow cytometer (Becton Dickinson). […]

Kelly cells [6] = assay: Apoptosis, propidium iodide sub G1 DNA content, Kelly; assay type: cell-based, human
Procedure: as §4

SK-N-BE(2) cells [7] = assay: Neuronal differentiation of NB cells (neurite outgrowth); assay type: cell-based, human; details: sub-lethal concentrations, 14-15 days
Procedure: SK-N-BE(2) cells were grown for 15 days in 6 well-plates and treated twice per week with DMSO or compound, with and without NGF. Differentiation was assessed based on number and length of neuronal outgrowths using a phase contrast microscope (Axiovert 40 CFL, Zeiss) and the Axiovision Rel. 4.8 software.
Phase contrast micrographs show representative pictures from one out of 3 to 5 independent experiments.

SK-N-BE(2) cells [8] = assay: Oil Red O staining of lipids; assay type: cell-based, human; details: sub-lethal concentrations, 3 days
Procedure: To explore the effect on lipid accumulation of the small molecules studied here cells were treated with sub-lethal concentrations of the compounds and stained with Oil Red O in order to detect lipids.
SK-N-BE(2) cells grown on cover slips were fixed in 4% PFA, washed in PBS and then in 60% isopropanol before staining with filtered Oil Red O solution (2 mg/ml) in 60% isopropanol. Cells were washed briefly in distilled water and mounted onto glass slides using water-soluble mounting medium (Aqua Pertex, Histolab products AB). For visualization, bright field images were captured at 40X magnification using an Axiovert 40 CFL inverted fluorescence microscope (Zeiss) and Axiovision Rel. 4.8 software.

[9] = Solubility in aqueous buffers (SPR running buffer); assay type: physicochemical; details: could not be analyzed at concentrations above 50 µM
Procedure: as §1

[10] = test system: Burkitt's lymphoma cell line xenograft; parameters: method as in PMID 20801893; details: cited from earlier work

T1 sequence (P01106 368-452): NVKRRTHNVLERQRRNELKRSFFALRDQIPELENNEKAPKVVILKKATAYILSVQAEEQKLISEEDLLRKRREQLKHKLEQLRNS

pKd [1] | SMILES | pKd [2] | effect on MYCN/MAX interaction (PLA) at 112.5 µM (MYCN/MAX interaction; 112.5 µM) | effect on MYCN/MAX interaction (PLA) (MYCN/MAX interaction) | effect on MYCN protein levels (MYCN protein levels) | pIC50 (Kelly cells [3]) | apoptosis induction in cells with high vs low MYCN (Tet21N cells) | antitumor activity in prostate cancer xenografts [4] | survival of TH-MYCN transgenic mice (TH-MYCN transgenic mice) | anti-tumor effects in NB xenografts (NB xenografts) | apoptosis (cell death) induction relative to 10058-F4 (SK-N-BE(2) cells [5]) | apoptosis (cell death) induction relative to 10058-F4 (Kelly cells [6]) | morphological neuronal differentiation (SK-N-BE(2) cells [7]) | lipid droplet accumulation (SK-N-BE(2) cells [8]) | solubility in aqueous buffers [9] | antitumor activity in Burkitt's lymphoma xenograft [10]
4.08 | CCc1ccc(C=C2SC(=O)NC2=O)cc1 [C-m/z 232] | 4.06 | not able to effect the MYCN/MAX interaction | did not affect MYCN/MAX dimer formation | – | – | – | – | – | – | – | – | – | – | – | –
– | CCc1ccc(C=C2SC(=S)NC2=O)cc1 [Compound 10058-F4, [Z,E]-5-[4-ethylbenzylidine]-2-thioxothiazolidin-4-one] | 4.38 | – | reduced the MYCN/MAX interaction | able to efficiently decrease the MYCN protein levels | 4.39 | cells with low MYCN-levels were less sensitive | no significant antitumor activity | increased the survival | showed anti-tumor effects | – | – | – | – | – | –
– | O=[N+]([O-])c1ccc(Nc2ccccc2-c2ccccc2)c2nonc12 [Compound 10074-G5] | 4.72 | – | reduced the MYCN/MAX interaction | decreased the MYCN protein levels at lower concentrations than 10058-F4 | 4.65 | MYCN dependent induction of apoptosis | – | – | – | more potent than 10058-F4 in inducing cell death | more potent than 10058-F4 in inducing cell death | evident neurite outgrowth | smaller but more numerous lipid droplets | especially poor solubility in aqueous buffers | failed to show any antitumor activity
